Measurements: US7888394B2, “Synthesis, polymorphs, and pharmaceutical formulation of FAAH inhibitors” (N.V. Organon, priority 2006, dated 2011)

Key:
[1] = Particle size determination of KDS-4103 polymorphs (Malvern Mastersizer 2000 Hydro S, dispersed in hexane); assay type: physicochemical; conditions: 1 minute sonication (47 kHz), 10,000 sweeps
Procedure: “Effective particle size,” as used herein refers to and is determined on the basis of the volume weight average particle size as measured by conventional particle size measuring techniques well known to those skilled in the art. Such techniques include, for example, sedimentation field flow fractionation, photon correlation spectroscopy, light scattering, laser diffraction and disc centrifugation. For the purposes of the compositions, formulations and methods described herein, effective particle size is the volume mass average particle size as determined using light scattering methods, e.g. Horiba LA-950. For example, an effective particle size of 5.9 μm means that 50% of the particles by weight are less than 5.9 μm and 50% of the particles by weight are greater than 5.9 μm.

[2] = Oral bioavailability determination of KDS-4103 polymorphs: plasma concentrations after oral administration of suspensions to rats; assay type: in vivo; conditions: for [KDS-4103] plasma concentration: oral gavage, 100 mg/mL suspension at 1 ml/kg
Procedure: Animals were sacrificed at 30, 60 and 90 minutes post-dose in each group. Collection of K3EDTA was acheived via cardiac puncture.

[3] = as above; assay type: in vivo; conditions: oral gavage, 100 mg/mL suspension at 1 ml/kg
[4] = system: fatty acid amide hydrolase (FAAH); conditions: cited from earlier work

Row | SMILES | average effective average particle size ([1]; listed as KDS-4103 from acetonitrile) | [KDS-4103] plasma concentration ([2]; time 30 minutes post-dose) [ng/mL] | [KDS-4103] plasma concentration ([2]; time 60 minutes post-dose) [ng/mL] | [KDS-4103] plasma concentration ([2]; time 90 minutes post-dose) [ng/mL] | levels of the compound in circulation compared to the polymorph obtained from EtOH ([2]; oral suspension) | bioavailability of the suspension ([2]; oral suspension, compared to polymorph from ethanol) | concentration at 0 min ([3]; rat, plasma, po, 100 mg/kg, [KDS-4103] plasma concentration) [ng/mL] | average effective average particle size ([1]; listed as KDS-4103 from ethanol) | [KDS-4103] plasma concentration ([3]; time 0 minutes) [ng/mL] | inhibition of FAAH activity [4]
1 | NC(=O)c1cccc(-c2cccc(OC(=O)NC3CCCCC3)c2)c1 [KDS-4103 polymorph from acetonitrile] | about 5.9 μm | 196.06 | 58.95 | 105.36 | increased levels of the compound in circulation | increased bioavailability | 0 | – | – | –
2 | NC(=O)c1cccc(-c2cccc(OC(=O)NC3CCCCC3)c2)c1 [KDS-4103 polymorph from ethanol] | – | 9.62 | 12.60 | 10.74 | – | – | – | about 13.9 μm | 0.00 | –
3 | NC(=O)c1cccc(-c2cccc(OC(=O)NC3CCCCC3)c2)c1 [KDS-4103] | – | – | – | – | – | – | – | – | – | potent and selective inhibitor of FAAH activity
